{"source": "paper PMC11968506", "about": "“Toxicokinetics and analytical toxicology of the phenmetrazine-derived new psychoactive substance 3,4-methylenedioxyphenmetrazine studied by means of in vitro systems” (Archives of Toxicology, 2025)", "key": {"[1]": {"conditions": "cited from earlier work"}, "[2]": {"conditions": "ref Alberto-Silva et al. 2024; cited from earlier work"}, "CYP2D6 [3]": {"target": "T1, CYP2D6 (Homo sapiens, UniProt P10635)", "T1 sequence (P10635 whole entry, canonical isoform)": "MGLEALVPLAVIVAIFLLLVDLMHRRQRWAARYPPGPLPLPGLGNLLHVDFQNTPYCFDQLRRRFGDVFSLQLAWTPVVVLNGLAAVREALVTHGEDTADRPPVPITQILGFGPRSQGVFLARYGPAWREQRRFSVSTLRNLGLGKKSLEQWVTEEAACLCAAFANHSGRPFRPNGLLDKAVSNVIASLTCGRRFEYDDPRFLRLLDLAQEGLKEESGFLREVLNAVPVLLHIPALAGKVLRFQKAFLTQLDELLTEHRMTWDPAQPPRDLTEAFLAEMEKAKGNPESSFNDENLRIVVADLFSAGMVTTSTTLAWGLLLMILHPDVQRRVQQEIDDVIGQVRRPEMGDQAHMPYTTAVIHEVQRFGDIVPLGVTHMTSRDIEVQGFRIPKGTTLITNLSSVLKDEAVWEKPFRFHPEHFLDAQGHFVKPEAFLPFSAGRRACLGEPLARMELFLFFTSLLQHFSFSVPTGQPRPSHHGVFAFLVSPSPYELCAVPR", "assay": "Monooxygenase mapping (ten human cDNA-expressed CYP isoforms and FMO3)", "assay_type": "in vitro ADME", "set-up": "Then, pHLM (0.4 mg microsomal protein/mL) was added to each group except the negative control; tissue Discovery Life Sciences; host or cells: pooled human liver microsomes, 25 donors", "conditions": "MDPM 25 µM, CYP 50 pmol/mL each or FMO3 0.25 mg protein/mL, 90 and 270 min", "description": "As described elsewhere (Wagmann et al. [2016]) and with minor modifications, MDPM (25 µM) was incubated with 2.5 mM isocitrate, 0.8 U/mL isocitrate dehydrogenase, 100 U/mL superoxide dismutase, 0.6 mM NADP^+, 2.5 mM Mg^2+ and CYP1A2, CYP2A6, CYP2B6, CYP2C8, CYP2C9, CYP2C19, CYP2D6, CYP2E1, CYP3A4, CYP3A5 (50 pmol/mL each), or FMO3 (0.25 mg protein/mL) for 90 and 270 min at 37 °C. For incubations with CYP2A6 or CYP2C9, phosphate buffer was replaced with 90 mM Tris buffer, according to the manufacturer’s guideline. Thirty µL aliquots were taken at both timepoints. The reaction was stopped using 20 µL acetonitrile (− 20 °C) with 2.5 µM trimipramine-d3 as an internal standard. All incubations were done in duplicates and concentrations are final. […] Negative control samples without enzymes and blank samples without substrate were incubated to identify not metabolically formed compounds and to confirm the absence of interfering compounds."}, "[4]": {"assay": "In vitro metabolism by pooled human liver microsomes", "assay_type": "in vitro ADME", "conditions": "MDPM 25 µM, pHLM 1 mg/mL, 60 and 120 min; tentative identification", "description": "Incubations with pHLM were in accordance with previous publications and minor modifications (Richter et al. [2017]). First, 2.5 mM isocitrate, 0.8 U/mL isocitrate dehydrogenase, 100 U/mL superoxide dismutase, 0.6 mM NADP^+, 2.5 mM Mg^2+ and pHLM (1 mg microsomal protein/mL) were preincubated for 10 min at 37 °C. […] Substances were incubated for 60 and 120 min at 37 °C. All concentrations are final concentrations, and incubations were done in duplicates. 50 µL aliquots were transferred to a new reaction tube at both timepoints. The reaction was stopped by adding 30 µL acetonitrile (− 20 °C) with 2.5 µM trimipramine-d3 as an internal standard. Negative control samples without enzymes and blank samples without substrates were performed to identify not metabolically formed compounds and to confirm the absence of interfering compounds."}, "[5]": {"assay": "In vitro metabolism by HepaRG cells", "assay_type": "in vitro ADME, human", "conditions": "MDPM 25 µM and 250 µM, tentative identification", "description": "Cell incubations were performed in a monolayer assay as previously described (Richter et al. [2019]) and in accordance with the manufacturer’s instructions. HepaRG cells were thawed and resuspended in 13.5 mL (~ 740,000 cells/mL) thaw and seed medium at 37 °C. Thaw and seed medium consisted of Williams E medium, 100 U/mL penicillin, 100 µg/mL streptomycin, GlutaMAX and HPRG670 supplement. Cells were handled under sterile conditions using a laminar flow bench class II (Thermo Scientific, TF, Schwerte, Germany). Aliquots of 100 µL cell suspension were seeded on collagen-coated 96-well plates (~ 74,000 cells/well). Evaporation was minimized by filling the outer wells with 100 µL thaw and seed medium. Cells were preincubated for 4 h in an incubator (Binder, Tuttlingen, Germany) at 37 °C, 95% air humidity, and 5% CO2. After preincubation, 50 µL of the thaw and seed medium was replaced with 50 µL MDPM solution (25 µM and 250 µM final concentrations), followed by an incubation for 24 h at 37 °C, 95% air humidity, and 5% CO2 atmosphere. MDMA or quetiapine (25 µM and 250 µM final concentrations, respectively) were incubated as positive controls. All incubations were done in triplicates. Each well contained 0.5% (v/v) DMSO. […]"}, "[6]": {"assay": "In vitro metabolism by pooled human liver S9 fraction", "assay_type": "in vitro ADME", "conditions": "MDPM 25 µM, pHLS9 2 mg/mL, 60 and 360 min; tentative identification", "description": "Incubations with pHLS9 were performed in accordance with previous publications and minor adjustments (Richter et al. [2017]). First, 25 μg/mL alamethicin (UGT reaction mix B), pHLS9 (2 mg microsomal protein/mL), 0.1 mM AcCoA, 2.3 mM acetylcarnitine, 8 U/mL carnitine acetyltransferase, 2.5 mM isocitrate, 0.8 U/mL isocitrate dehydrogenase, 100 U/mL superoxide dismutase, 0.6 mM NADP^+ and 2.5 mM Mg^2+ were preincubated for 10 min at 37 °C. Then, 2.5 mM UDP-glucuronic acid (UGT reaction mix A), 40 µM PAPS, 1.2 mM SAM, 1 mM DTT and 10 mM GSH were added. The reaction was started by adding the respective substrate MDPM, MDMA, or quetiapine (25 µM each). MDMA and quetiapine were incubated as positive controls. Negative control samples without enzymes and blank samples without substrates were incubated to identify not metabolically formed compounds and to confirm the absence of interfering compounds. […] Aliquots (50 µL) were transferred to a new reaction tube after 60 and 360 min. […] Samples were vortexed, stored at − 20 °C for 30 min, and centrifuged for 2 min at 18,407×g."}, "CYP2D6 [7]": {"target": "T1, CYP2D6", "assay": "CYP inhibition cocktail assay in pHLM, CYP2D6 (dextromethorphan)", "conditions": "inhibitor 20 µM, dextromethorphan, pHLM; versus control without inhibitor", "description": "(§1) A modified dual-cocktail based method (Dinger et al. [2014b]) was used. Substrate cocktail A consisted of 8.9 µM dextromethorphan (CYP2D6), 86 µM testosterone (CYP3A4), 3.5 µM diclofenac (CYP2C9), and 12 µM phenacetin (CYP1A2). Substrate cocktail B included 30 µM bupropion (CYP2B6), 2 µM amodiaquine (CYP2C8) and 21 µM omeprazole (CYP2C19). Substrate concentrations were near their respective Michaelis–Menten constant (Km) values (Dinger et al. [2014a]) and all concentrations are final. Enzyme inhibition was investigated using a positive control, a test group, a control group, an interference group, and a negative control. In the test group, specific inhibitors were replaced by MDPM (20 µM). Instead of inhibitors, phosphate buffer was used in the control group. Enzymes were replaced with phosphate buffer in the negative control group. The interference group was incubated like the control group, but the reaction was stopped with 20 µM MDPM in acetonitrile, also containing 2.5 µM trimipramine-d3. All groups were incubated with a NADPH-regenerating system, consisting of 5 mM isocitrate, 2 U/mL isocitrate dehydrogenase, 5 mM Mg^2+, and 1.2 mM NADP^+. Further, substrate cocktail A or B, 90 mM phosphate buffer (pH 7.4), and 200 U/mL superoxide dismutase were added to each group. […] All groups were preincubated for 10 min at 37 °C. Then, pHLM (0.4 mg microsomal protein/mL) was added to each group except the negative control. Incubations were done for 15 min at 37 °C. Therefore, 50 µL of acetonitrile (− 20 °C) containing 2.5 µM trimipramine-d3 as internal standard was added. Incubations were done in triplicates and organic solvent in the incubation mixture was below 1% (Chauret et al. [1998]). Afterwards the samples were vortexed and centrifuged for 2 min at 18,407×g. 70 µL of the supernatant were transferred to autosampler vials and 10 µL were injected onto the LC-HRMS/MS system. Enzyme inhibition was evaluated by metabolite formation. […] The following settings were used: unpaired; one-tailed; significance level, 0.05; confidence intervals, 99%."}, "CYP2C8 [8]": {"system": "CYP2C8", "conditions": "100 µM trimethoprim; ref Niemi et al. 2004; cited from earlier work"}, "CYP2C8 [9]": {"target": "T2, CYP2C8 (Homo sapiens, UniProt P10632)", "T2 sequence (P10632 1-490)": "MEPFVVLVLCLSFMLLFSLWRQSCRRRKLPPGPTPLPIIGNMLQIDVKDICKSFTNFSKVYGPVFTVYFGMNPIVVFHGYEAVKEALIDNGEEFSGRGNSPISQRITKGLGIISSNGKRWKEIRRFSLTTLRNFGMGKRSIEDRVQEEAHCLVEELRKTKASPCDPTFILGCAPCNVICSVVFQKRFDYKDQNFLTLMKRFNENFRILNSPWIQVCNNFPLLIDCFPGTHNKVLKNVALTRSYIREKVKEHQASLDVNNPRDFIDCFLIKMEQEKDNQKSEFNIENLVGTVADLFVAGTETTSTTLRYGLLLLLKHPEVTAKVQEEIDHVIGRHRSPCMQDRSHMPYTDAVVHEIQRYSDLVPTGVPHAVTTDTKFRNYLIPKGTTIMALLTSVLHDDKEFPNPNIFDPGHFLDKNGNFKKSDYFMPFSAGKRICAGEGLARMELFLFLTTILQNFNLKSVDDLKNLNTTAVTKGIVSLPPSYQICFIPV", "assay": "CYP inhibition cocktail assay in pHLM, CYP2C8 (amodiaquine)", "conditions": "inhibitor 100 µM, amodiaquine 2 µM, pHLM 0.4 mg/mL, 15 min; control without inhibitor = 100%", "description": "as §1"}, "CYP2C19": {"target": "CYP2C19 (Homo sapiens, UniProt P33261)", "sequence (P33261 whole entry)": "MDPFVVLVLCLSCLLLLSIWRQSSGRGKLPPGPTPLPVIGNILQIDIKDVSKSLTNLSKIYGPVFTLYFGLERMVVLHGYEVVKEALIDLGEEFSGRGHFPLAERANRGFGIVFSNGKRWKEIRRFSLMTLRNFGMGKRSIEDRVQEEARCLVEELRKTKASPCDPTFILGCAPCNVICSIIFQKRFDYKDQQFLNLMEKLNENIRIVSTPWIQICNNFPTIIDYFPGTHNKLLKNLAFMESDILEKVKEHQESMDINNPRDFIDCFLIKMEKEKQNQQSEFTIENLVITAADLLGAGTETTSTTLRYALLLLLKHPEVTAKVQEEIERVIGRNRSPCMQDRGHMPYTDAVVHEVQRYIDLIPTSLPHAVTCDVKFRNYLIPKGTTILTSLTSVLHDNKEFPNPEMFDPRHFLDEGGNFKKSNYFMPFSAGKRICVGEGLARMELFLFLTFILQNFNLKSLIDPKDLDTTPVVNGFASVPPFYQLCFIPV", "assay": "CYP inhibition cocktail assay in pHLM, CYP2C19 (omeprazole)", "conditions": "inhibitor 20 µM, omeprazole 21 µM, pHLM 0.4 mg/mL, 15 min; control without inhibitor = 100%", "description": "as §1"}, "CYP2B6": {"target": "T3, CYP2B6 (Homo sapiens, UniProt P20813)", "T3 sequence (P20813 1-491)": "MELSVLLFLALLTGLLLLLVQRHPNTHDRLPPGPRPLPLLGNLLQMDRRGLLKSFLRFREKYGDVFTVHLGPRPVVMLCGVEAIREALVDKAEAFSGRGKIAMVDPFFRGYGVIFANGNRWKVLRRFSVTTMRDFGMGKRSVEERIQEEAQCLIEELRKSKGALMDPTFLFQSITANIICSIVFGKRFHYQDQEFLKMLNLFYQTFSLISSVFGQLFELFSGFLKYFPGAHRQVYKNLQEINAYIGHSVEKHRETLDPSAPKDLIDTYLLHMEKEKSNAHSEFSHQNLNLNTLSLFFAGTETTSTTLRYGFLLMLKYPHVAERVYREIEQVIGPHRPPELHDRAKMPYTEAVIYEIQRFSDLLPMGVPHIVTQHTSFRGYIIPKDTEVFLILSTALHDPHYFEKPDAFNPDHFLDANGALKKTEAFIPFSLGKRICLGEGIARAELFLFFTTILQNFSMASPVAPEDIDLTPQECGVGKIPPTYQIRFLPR", "assay": "CYP inhibition cocktail assay in pHLM, CYP2B6 (bupropion)", "conditions": "inhibitor 20 µM, bupropion 30 µM, pHLM 0.4 mg/mL, 15 min; control without inhibitor = 100%", "description": "as §1"}, "CYP2C9": {"target": "CYP2C9 (Homo sapiens, UniProt P11712)", "sequence (P11712 whole entry)": "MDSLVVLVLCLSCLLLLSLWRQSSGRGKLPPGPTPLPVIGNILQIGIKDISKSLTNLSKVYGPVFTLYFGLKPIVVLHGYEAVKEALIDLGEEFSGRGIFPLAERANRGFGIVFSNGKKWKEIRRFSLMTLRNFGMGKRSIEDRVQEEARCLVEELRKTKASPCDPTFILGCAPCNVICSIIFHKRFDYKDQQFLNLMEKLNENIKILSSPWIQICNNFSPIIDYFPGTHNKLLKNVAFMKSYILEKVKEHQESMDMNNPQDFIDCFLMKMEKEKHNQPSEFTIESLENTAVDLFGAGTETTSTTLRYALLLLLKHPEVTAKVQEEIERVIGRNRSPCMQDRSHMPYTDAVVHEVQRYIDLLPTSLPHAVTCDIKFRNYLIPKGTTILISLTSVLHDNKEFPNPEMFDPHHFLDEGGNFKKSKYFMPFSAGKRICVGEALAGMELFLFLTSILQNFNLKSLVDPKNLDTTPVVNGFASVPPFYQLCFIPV", "assay": "CYP inhibition cocktail assay in pHLM, CYP2C9 (diclofenac)", "conditions": "inhibitor 20 µM, diclofenac 3.5 µM, pHLM 0.4 mg/mL, 15 min; control without inhibitor = 100%", "description": "as §1"}}, "note": "Read-outs that look alike come from different tables or passages of the source.", "data": [{"smiles": "CNC(C)Cc1ccc2c(c1)OCO2", "note": "(stereo not drawn) [MDMA, 3,4-methylenedioxymethamphetamine]", "values": [{"measurement": "plasma protein binding (PPB)", "setting": "[1]; ref Wan Aasim et al. 2017", "value": "43–51%"}, {"measurement": "in vitro half-life", "setting": "[2]", "value": "over 150 min"}]}, {"smiles": "CC1NCCOC1c1ccc(O)c(O)c1", "note": "(stereo not drawn) [M1, Demethylenyl-MDPM]", "values": [{"measurement": "isozymes forming the demethylenyl metabolite (O-demethylenation of MDPM)", "setting": "CYP2D6 [3]", "value": "only found in CYP2D6 incubations"}, {"measurement": "metabolite detection in pHLM incubations", "setting": "[4]", "value": "found"}, {"measurement": "metabolite detection in HepaRG incubations", "setting": "[5]", "value": "could not be identified"}, {"measurement": "metabolite detection in pHLS9 incubations", "setting": "[6]", "value": "could not be identified"}]}, {"smiles": "C=C[C@H]1C[N@@]2CC[C@H]1C[C@@H]2[C@@H](O)c1ccnc2ccc(OC)cc12", "note": "[Quinidine, quinidine, reference compound]", "values": [{"measurement": "decrease in CYP2D6 activity (inhibition)", "setting": "CYP2D6 [7]", "value": 99, "unit": "%"}]}, {"smiles": "CC(N)Cc1ccccc1", "note": "(stereo not drawn) [amphetamine]", "values": [{"measurement": "plasma protein binding (PPB)", "setting": "[1]; ref Franksson and Anggard 1970, Losacker et al. 2021", "value": "20–30%"}]}, {"smiles": "COc1cc(Cc2cnc(N)nc2N)cc(OC)c1OC", "note": "[Trimethoprim, trimethoprim, reference compound]", "values": [{"measurement": "maximum inhibition of CYP2C8 activity", "setting": "CYP2C8 [8]", "value": "≤ 40", "unit": "%"}, {"measurement": "CYP2C8 metabolite formation", "setting": "CYP2C8 [9]", "value": 81, "unit": "%"}]}, {"smiles": "CC1NCCOC1c1ccccc1", "note": "(stereo not drawn) [phenmetrazine]", "values": [{"measurement": "plasma protein binding (PPB)", "setting": "[1]; ref Franksson and Anggard 1970", "value": 20, "unit": "%"}]}, {"smiles": "OC(Cn1cncn1)(Cn1cncn1)c1ccc(F)cc1F", "note": "[Fluconazole, fluconazole, reference compound]", "values": [{"measurement": "CYP2C19 metabolite formation", "setting": "CYP2C19", "value": 48, "unit": "%"}]}, {"smiles": "CN[C@H]1CC[C@@H](c2ccc(Cl)c(Cl)c2)c2ccccc21", "note": "[Sertraline, sertraline, reference compound]", "values": [{"measurement": "CYP2B6 metabolite formation", "setting": "CYP2B6", "value": 24, "unit": "%"}]}, {"smiles": "COc1cc(C2OCCNC2C)ccc1O", "note": "(stereo not drawn) [M2]", "values": [{"measurement": "metabolite detection in pHLS9 incubations", "setting": "[6]", "value": "found"}]}, {"smiles": "Nc1ccc(S(=O)(=O)Nc2ccnn2-c2ccccc2)cc1", "note": "[Sulfaphenazole, sulfaphenazole, reference compound]", "values": [{"measurement": "CYP2C9 metabolite formation", "setting": "CYP2C9", "value": 9, "unit": "%"}]}]}
